Consider five molecules from patent US4996217A, “Pyridyl-substituted imidazoles, compositions containing same and methods of use thereof” (Tanabe Seiyaku Company, Ltd., priority 1986, dated 1991).

Where only a bound is given, the exact number is not on record here.

The first test concerns gastrin-induced gastric acid secretion. The experiment in a line: effect on gastrin-induced gastric acid secretion, oral administration to rats. The format is in vivo. The note with it: dose of 30 mg/kg.
For `Cc1cccnc1-n1ccnc1[S+]([O-])Cc1ccccc1N(C)C` (stereo not drawn) [1-(3-methyl-2-pyridyl)-2-(2-(dimethylamino)benzylsulfinyl)imidazole], the “decrease in gastric acid secretion as compared with non-administered group of rats” value (from here on “decrease … with non-administered group of rats”) is “more than 70%”.

As for `[O-][S+](Cc1ccccc1-n1cccc1)c1nccn1-c1ccccn1` (stereo not drawn) [1-(2-pyridyl)-2-(2-(1-pyrrolyl)-benzylsulfinyl)imidazole], the “decrease … with non-administered group of rats” value is “more than 70%”.

Regarding `CCN(CC)c1ccccc1C[S+]([O-])c1nc2c(n1-c1ccccn1)CCC2` (stereo not drawn) [1,4,5,6-tetrahydro-1-(2-pyridyl)-2-(2-(diethylamino)benzylsulfinyl)cyclopenta(d)imidazole], the “decrease … with non-administered group of rats” value was “more than 70%”.

For a further test, the target named is T1, H+/K+ ATPase (Sus scrofa, UniProt P19156).
T1 construct: prepared from the porcine gastric mucosa; from tissue; host or cells: porcine gastric mucosa
T1 sequence (P19156 2-1034 limits assumed): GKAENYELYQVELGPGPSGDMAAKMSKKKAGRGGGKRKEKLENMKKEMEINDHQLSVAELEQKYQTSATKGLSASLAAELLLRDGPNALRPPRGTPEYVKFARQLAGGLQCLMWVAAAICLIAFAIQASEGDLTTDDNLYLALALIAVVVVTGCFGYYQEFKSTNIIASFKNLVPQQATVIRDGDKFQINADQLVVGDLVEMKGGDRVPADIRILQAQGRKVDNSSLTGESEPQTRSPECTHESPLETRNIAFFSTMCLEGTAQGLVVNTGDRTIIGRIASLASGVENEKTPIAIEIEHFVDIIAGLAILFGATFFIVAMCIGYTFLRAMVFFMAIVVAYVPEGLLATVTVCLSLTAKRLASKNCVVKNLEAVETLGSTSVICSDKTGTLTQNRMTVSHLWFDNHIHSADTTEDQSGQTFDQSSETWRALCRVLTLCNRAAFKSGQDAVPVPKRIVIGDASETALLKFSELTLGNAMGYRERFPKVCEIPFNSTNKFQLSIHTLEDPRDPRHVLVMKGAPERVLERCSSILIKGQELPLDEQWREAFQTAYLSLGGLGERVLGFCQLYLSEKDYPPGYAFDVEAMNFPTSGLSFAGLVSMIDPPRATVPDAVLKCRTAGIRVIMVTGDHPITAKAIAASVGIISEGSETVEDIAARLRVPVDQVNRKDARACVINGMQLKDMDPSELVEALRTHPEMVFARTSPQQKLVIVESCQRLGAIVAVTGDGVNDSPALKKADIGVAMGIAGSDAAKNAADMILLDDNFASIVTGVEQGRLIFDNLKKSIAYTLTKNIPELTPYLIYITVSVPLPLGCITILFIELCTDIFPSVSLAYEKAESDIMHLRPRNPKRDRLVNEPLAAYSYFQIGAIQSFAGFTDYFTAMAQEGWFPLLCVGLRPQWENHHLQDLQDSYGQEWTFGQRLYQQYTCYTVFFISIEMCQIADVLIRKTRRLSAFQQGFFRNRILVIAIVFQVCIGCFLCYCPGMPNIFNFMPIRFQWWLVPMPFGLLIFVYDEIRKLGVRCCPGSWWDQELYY
T1 sequence (P18434 whole entry partner): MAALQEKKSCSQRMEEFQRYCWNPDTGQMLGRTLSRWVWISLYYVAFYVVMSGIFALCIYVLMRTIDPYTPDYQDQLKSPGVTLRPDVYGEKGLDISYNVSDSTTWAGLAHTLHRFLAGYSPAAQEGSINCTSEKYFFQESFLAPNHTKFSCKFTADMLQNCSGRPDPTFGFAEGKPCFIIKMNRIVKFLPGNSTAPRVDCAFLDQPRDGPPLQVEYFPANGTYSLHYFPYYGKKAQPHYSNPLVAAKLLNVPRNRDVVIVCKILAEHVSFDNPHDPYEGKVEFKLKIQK
As to the kind of experiment: effect on the enzyme activity of H+/K+ ATPase prepared from porcine gastric mucosa. Type of test: biochemical. The note with it: read-out: IC50 (concentration required to induce 50% inhibition of H+/K+ ATPase enzymatic activity).
On to `[O-][S+](Cc1ccccc1NC1CCCCC1)c1nccn1-c1ccccn1` (stereo not drawn) [1-(2-pyridyl)-2-(2-(cyclohexylamino)benzylsulfinyl)imidazole], for which the IC50 was less than 10 µM.

Turning to `CCN(CC)c1ccccc1C[S+]([O-])c1nc2c(n1-c1ccccn1)CCC2` (stereo not drawn) [1,4,5,6-tetrahydro-1-(2-pyridyl)-2-(2-(diethylamino)benzylsulfinyl)cyclopenta(d)imidazole], the IC50 was roughly 10 µM.

As for `CCN(CC)c1ccccc1C[S+]([O-])c1nccn1-c1cc(OC)cc(C)n1` (stereo not drawn) [1-(4-methoxy-6-methyl-2-pyridyl)-2-(2-(diethylamino)benzylsulfinyl)imidazole], the IC50 is less than 10 µM.
